{
  "source": "paper PMC8605905",
  "about": "(Oxidative Medicine and Cellular Longevity, 2021)",
  "key": {"[1]": {"tested_on": "Aβ-GFP SH-SY5Y cells", "experiment": "High content analysis of Aβ-GFP fluorescence", "format": "cell-based, Human", "experimental": "Human neuroblastoma SH-SY5Y-derived Aβ-GFP [23] and ∆K280 tauRD-DsRed cells were kept in DMEM/nutrient mixture F12 (DMEM/F12) containing 10% FBS, 5 μg/ml blasticidin, and 100 μg/ml hygromycin (InvivoGen, San Diego, CA, USA). Doxycycline (Sigma-Aldrich) was applied to induce the expression of Aβ-GFP (5 μg/ml doxycycline) or ∆K280 tauRD-DsRed (2 μg/ml doxycycline).\nOn day 1, Aβ-GFP or ∆K280 tauRD-DsRed SH-SY5Y cells were seeded into 96-well plates (2.5 × 10^4/well) and treated with retinoic acid (10 μM; Sigma-Aldrich) to prompt neuronal differentiation. […] Image Acquisition and Analysis Software (MetaXpress) (Molecular Devices, Sunnyvale, CA, USA) was used to analyse the images. CellROX Orange (5 μM; Molecular Probes, Eugene, OR, USA) (for Aβ-GFP cells) or dichloro-dihydro-fluorescein diacetate (DCFH-DA, 10 μM; Invitrogen) (for ∆K280 tauRD-DsRed cells) was added to the cells and incubated at 37°C for 30 min."}, "[2]": {"tested_on": "∆K280 tauRD-DsRed SH-SY5Y cells", "experiment": "Western blot in ΔK280 tauRD-DsRed SH-SY5Y cells", "format": "cell-based, Human", "details": "LM-021 10 μM, immunoblot", "experimental": "To monitor the cAMP-mediated signal transduction pathway, CRE-GFP 293 cells in 6-well plates (1 × 10^6/well) were pretreated with kinase inhibitor H-89 (LC Laboratories, Woburn, MA, USA), KN-62 (Cayman Chemical, Ann Arbor, MI, USA), U0126 (LC Laboratories), or wortmannin (LC Laboratories) (10 μM) for 4 h before forskolin or LM-021 (10 μM) addition for 5 h. GFP fluorescence/protein and total/phosphorylated PKA, CaMKII, ERK, PI3K, and CREB levels were examined. In addition, Aβ-GFP or ∆K280 tauRD-DsRed SH-SY5Y cells were treated with retinoic acid (10 μM) on day 1, followed by the addition of LM-021 (5 or 10 μM) and doxycycline (5 or 2 μg/ml) on day 2, as described. Kinase inhibitors (10 μM) were added on day 6. On day 8, the cells were collected for protein expression analysis of BDNF, BCL2 (BCL2 apoptosis regulator), and BAX (BCL2 associated X, apoptosis regulator), and total/phosphorylated PKA, CaMKII, ERK, PI3K, and CREB. Also, cells were stained with DAPI and assessed for neurite outgrowth as described above.\nTotal proteins from CRE-GFP 293 and Aβ-GFP, ∆K280 tauRD-DsRed SH-SY5Y cells were extracted using lysis buffer (50 mM Tris-HCl (pH 8.0), 150 mM NaCl, 1 mM EDTA (pH 8.0), 1 mM EGTA (pH 8.0), 0.1% SDS, 0.5% sodium deoxycholate, 1% Triton X-100) containing phosphatase and protease inhibitor cocktails (Sigma-Aldrich). Protein concentrations were measured using a protein assay kit (Bio-Rad, Hercules, CA, USA), and 20 μg of proteins was separated with 10% SDS-PAGE and blotted onto polyvinylidene difluoride (PVDF) membranes (Sigma-Aldrich). After blocking, the membrane blot was incubated with primary antibody against GFP (1 : 500; Santa Cruz Biotechnology, Santa Cruz, CA, USA), PKA (1 : 1000; R&D Systems, Minneapolis, MN, USA), p-PKA (T197) (1 : 1000; Cell Signaling, Danvers, MA, USA), ERK (1 : 500; Cell Signaling), p-ERK (T202/Y204) (1 : 500; Cell Signaling), CaMKII (1 : 1000; Santa Cruz Biotechnology), p-CaMKII (T286) (1 : 1000; Cell Signaling), CREB (1 : 1000; Santa Cruz Biotechnology), p-CREB (S133) (1 : 1000; Millipore, Billerica, MA, USA), BDNF (1 : 500; Santa Cruz Biotechnology), BCL2 (1 : 500; BioVision), BAX (1 : 500; BioVision), GAPDH (glyceraldehyde-3-phosphate dehydrogenase, as a loading control) (1 : 1000; MDBio, Taipei, Taiwan), or β-tubulin (1 : 1000, Sigma-Aldrich, as a loading control). The immune complexes were visualized using horseradish peroxidase-conjugated goat anti-mouse or goat anti-rabbit IgG antibody (1 : 5000, GeneTex, Irvine, CA, USA) and a chemiluminescent substrate (Millipore)."}},
  "data": [
    {"smiles": "CN(C)c1ccc(/C=C/C(=O)c2c(O)c3ccccc3oc2=O)cc1", "note": "[LM-021, (E)-3-(3-(4-(dimethylamino)phenyl)acryloyl)-4-hydroxy-2H-chromen-2-one]", "values": [
      {"measurement": "Toxicity in SH-SY5Y cells", "setting": "[1]; Aβ-GFP and ΔK280 tauRD-DsRed SH-SY5Y cells (Figures 3 and 4)", "result": "low toxicity"},
      {"measurement": "EC50", "setting": "[1]; Homo sapiens, Aβ-GFP SH-SY5Y cells, tested 1.2–5 μM, read-out: EC50 in Aβ aggregation inhibition (GFP fluorescence)", "result": 5.1, "unit": "µM"},
      {"measurement": "Concentration significantly augmenting green fluorescence intensity (Aβ-GFP)", "setting": "[1]; tested 1.2–5 μM, day 8", "result": "1.2 to 5", "unit": "µM"},
      {"measurement": "BAX protein level", "setting": "[2]", "result": "decreased"},
      {"measurement": "Level of PKA, CaMKII, or ERK", "setting": "[2]", "result": "nor LM-021 treatment significantly altered"},
      {"measurement": "p-CREB, CREB, pro-BDNF, m-BDNF, and BCL2 protein levels", "setting": "[2]", "result": "significantly upregulated"},
      {"measurement": "p-PKA, p-CaMKII, and p-ERK protein levels", "setting": "[2]", "result": "increased"}
    ]}
  ]
}
